In US20230248826A1, “Synchronizing Tumor Cells to the G2/M Phase Using TTFields Combined with Taxane or Other Anti-Microtubule Agents” (Novocure GmbH, priority 2016, published 2023):

Assays:
Format in all cases: cell-based, human
A2780 cells [1] = assay: Mitotic figures analysis by confocal microscopy, A2780; conditions: 4 nM paclitaxel combined with 2.7 V/cm pk-pk, 200 kHz TTFields, 72 hours, A2780, compared to control and single treatments
Protocol: (§1) The human ovarian carcinoma cell line A2780 was obtained from the European Collection of Cell Cultures. The human ovarian adenocarcinoma cell lines OVCAR-3 (HTB-161) and Caov-3 (HTB-75) were obtained from the American Type Culture Collection (ATCC). Paclitaxel (Sigma Aldrich, Rehovot, Israel) dissolved in DMSO was used at the following concentrations: 1 nM, 2 nM, 4 nM, 10 nM, and 100 nM.
(§2) TTFields were applied in vitro using special ceramic Petri dishes with two pairs of transducer arrays printed perpendicularly on the outer walls of a Petri dish. The inner surfaces of the electrodes were coated with a high dielectric constant ceramic (lead magnesium niobate-lead titanate (PMN-PT)). The transducer arrays were connected to a sinusoidal waveform generator which generated fields at 200 kHz in the medium. By selectively activating the signals that were applied to the electrodes, the orientation of the TTFields was switched 90° every 1 second, thus covering the majority of the orientation axis of cell divisions, as previously described by Kirson et al. During the experiment, temperature was measured by 2 thermistors (Omega Engineering, Stamford, Conn.) attached to the walls of the Petri dish. All cells suspensions were grown on a cover slip inside the Petri dish and treated with TTFields at intensity of 2.7 V/cm. […]

Caov-3 cells [2] = assay: Cell cycle analysis by flow cytometry, Caov-3; conditions: 72 hours
Protocol: (§3) The human ovarian carcinoma cell line A2780 was obtained from the European Collection of Cell Cultures. The human ovarian adenocarcinoma cell lines OVCAR-3 (HTB-161) and Caov-3 (HTB-75) were obtained from the American Type Culture Collection (ATCC). Paclitaxel (Sigma Aldrich, Rehovot, Israel) dissolved in DMSO was used at the following concentrations: 1 nM, 2 nM, 4 nM, 10 nM, and 100 nM. TTFields were applied in vitro using special ceramic Petri dishes with two pairs of transducer arrays printed perpendicularly on the outer walls of a Petri dish. The inner surfaces of the electrodes were coated with a high dielectric constant ceramic (lead magnesium niobate-lead titanate (PMN-PT)). […] By selectively activating the signals that were applied to the electrodes, the orientation of the TTFields was switched 90° every 1 second, thus covering the majority of the orientation axis of cell divisions, as previously described by Kirson et al. During the experiment, temperature was measured by 2 thermistors (Omega Engineering, Stamford, Conn.) attached to the walls of the Petri dish. […] Cell cycle distribution was then quantified using iCyt EC800. Fluorescence signals were collected at the wavelengths of 525/50 nm for Annexin V and 665/30 nm for 7-AAD. The data was analyzed using the Flowjo software. […]

A2780 cells [3] = assay: Cell cycle analysis by flow cytometry, A2780; conditions: 8 hours
Protocol: as §3

Caov-3 cells [4] = assay: Mitotic figures analysis by confocal microscopy, Caov-3; conditions: 4 nM paclitaxel combined with 2.7 V/cm pk-pk, 200 kHz TTFields, 72 hours, Caov-3, compared to control and single treatments
Protocol: as §1, §2

OVCAR-3 cells [5] = assay: Cell cycle analysis by flow cytometry, OVCAR-3; conditions: 72 hours
Protocol: as §3

OVCAR-3 cells [6] = assay: Mitotic figures analysis by confocal microscopy, OVCAR-3; conditions: 4 nM paclitaxel combined with 2.7 V/cm pk-pk, 200 kHz TTFields, 72 hours, OVCAR-3, compared to control and single treatments
Protocol: as §1, §2

[7] = low dose paclitaxel (2, 4 and 10 nM) combined with TTFields (2.7 V/cm, 200 kHz)
[8] = paclitaxel alone, without TTFields

CC(=O)O[C@H]1C(=O)[C@@]2(C)[C@H]([C@H](OC(=O)c3ccccc3)[C@]3(O)C[C@H](OC(=O)[C@H](O)[C@@H](NC(=O)c4ccccc4)c4ccccc4)C(C)=C1C3(C)C)[C@]1(OC(C)=O)CO[C@@H]1C[C@@H]2O [paclitaxel]
mitotic figures (mitotic arrest) (A2780 cells [1]): substantial increase in mitotic figures
number of cells in the G2/M phase (Caov-3 cells [2]; [7]): dramatically increased
cells in the G2/M phase (Caov-3 cells [2]; [8]): accumulated in the G2/M phase in a dose dependent manner
cells in the G2/M phase (A2780 cells [3]; low dose paclitaxel combined with TTFields (2.7 V/cm, 200 kHz)): accumulated in the G2/M phase even after a short treatment duration
cells in the G2/M phase (A2780 cells [3]; [8]): accumulated in the G2/M phase in a dose dependent manner
mitotic figures (mitotic arrest) (Caov-3 cells [4]): substantial increase in mitotic figures
number of cells in the G2/M phase (OVCAR-3 cells [5]; [7]): dramatically increased
cells in the G2/M phase (OVCAR-3 cells [5]; [8]): accumulated in the G2/M phase in a dose dependent manner
mitotic figures (mitotic arrest) (OVCAR-3 cells [6]): substantial increase in mitotic figures
